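In this assay, cells in 96-well plates receive the compound at five concentrations for 48 hours. Endpoints are linearly interpolated between the surrounding concentrations. Here, GI50 denotes the concentration required for 50% inhibition of growth. TGI: concentration producing complete growth inhibition.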
Assays:
Experiment in all cases: growth of human tumour cells (NCI), 48 h
[1] = system: UO-31 renal
[2] = system: RXF 393 renal
[3] = system: NCI-H522 lung
[4] = system: 786-0 renal
[5] = system: A498 renal
[6] = system: COLO 205 colon
[7] = system: HT29 colon
[8] = system: NCI-H23 lung
[9] = system: T-47D breast
[10] = system: HCT-116 colon
[11] = system: HCT-15 colon
[12] = system: SK-MEL-2 melanoma
[13] = system: MDA-MB-435
[14] = system: IGROV1 ovarian
[15] = system: OVCAR-4 ovarian
[16] = system: MOLT-4 leukemia
[17] = system: NCI-H226 lung
[18] = system: SR leukemia
[19] = system: MALME-3M melanoma
[20] = system: EKVX NSCLC
[21] = system: NCI-H460 lung
[22] = system: CCRF-CEM leukemia
[23] = system: LOX IMVI melanoma
[24] = system: K-562 leukemia
[25] = system: PC-3 prostate
[26] = system: SK-OV-3 ovarian
[27] = system: HOP-92 NSCLC
[28] = system: KM12 colon
[29] = system: CAKI-1 renal
[30] = system: U251 CNS
[31] = system: A549 NSCLC
[32] = system: MCF7 breast
[33] = system: SK-MEL-28 melanoma
[34] = system: HL-60(TB) leukemia
[35] = system: MDA-MB-468 breast
[36] = system: SF-539 CNS
[37] = system: BT-549 breast
[38] = system: SN12C renal
[39] = system: SNB-19 CNS
[40] = system: OVCAR-5 ovarian
[41] = system: SF-268 CNS
[42] = system: RPMI-8226 leukemia
[43] = system: MDA-MB-231 breast
[44] = system: TK-10 renal
[45] = system: DU-145 prostate
[46] = system: OVCAR-3 ovarian
[47] = system: UACC-62 melanoma
[48] = system: NCI/ADR-RES ovarian
[49] = system: ACHN renal
[50] = system: HOP-62 NSCLC
[51] = system: SF-295 CNS
[52] = system: OVCAR-8 ovarian
[53] = system: UACC-257 melanoma
[54] = system: SW-620 colon
[55] = system: SK-MEL-5 melanoma
[56] = system: HCC-2998 colon
[57] = system: M14 melanoma
[58] = system: HS 578T breast

O=C(NNc1nc2cc(F)ccc2n2c(CN3CC4CNCC4C3)ccc12)c1ccncn1 (stereo unspecified)
GI50 [1]: 0.822 µM
TGI [1]: 11.7 µM
GI50 [2]: 1.58 µM
TGI [2]: 12.8 µM
GI50 [3]: 2.36 µM
TGI [3]: 11.7 µM
GI50 [4]: 0.5 µM
TGI [4]: 11.3 µM
GI50 [5]: 24.9 µM
TGI [5]: 40.4 µM
GI50 [6]: 3.05 µM
TGI [6]: 12.1 µM
GI50 [7]: 2.02 µM
TGI [7]: 18.1 µM
GI50 [8]: 2.31 µM
TGI [8]: 10.4 µM
GI50 [9]: 3.11 µM
TGI [9]: 14.7 µM
GI50 [10]: 0.73 µM
TGI [10]: 13.7 µM
GI50 [11]: 0.746 µM
TGI [11]: 15.9 µM
GI50 [12]: 2.65 µM
TGI [12]: 14.7 µM
GI50 [13]: 3.68 µM
TGI [13]: 17.6 µM
GI50 [14]: 2.36 µM
TGI [14]: 13.3 µM
GI50 [15]: 1.56 µM
TGI [15]: 17.3 µM
GI50 [16]: 1.45 µM
TGI [16]: 9.6 µM
GI50 [17]: 0.943 µM
TGI [17]: 6.73 µM
GI50 [18]: 0.751 µM
TGI [18]: 9.24 µM
GI50 [19]: 2.17 µM
TGI [19]: 8.75 µM
GI50 [20]: 0.441 µM
TGI [20]: 9.23 µM
GI50 [21]: 0.591 µM
TGI [21]: 16.1 µM
GI50 [22]: 1.55 µM
TGI [22]: 6.18 µM
GI50 [23]: 1 µM
TGI [23]: 4.05 µM
GI50 [24]: 1.76 µM
TGI [24]: 11.9 µM
GI50 [25]: 2.11 µM
TGI [25]: 15.4 µM
GI50 [26]: 0.984 µM
TGI [26]: 12.1 µM
GI50 [27]: 0.0544 µM
TGI [27]: 6.37 µM
GI50 [28]: 1.78 µM
TGI [28]: 16.2 µM
GI50 [29]: 0.654 µM
TGI [29]: 12.8 µM
GI50 [30]: 0.78 µM
TGI [30]: 12.2 µM
GI50 [31]: 2.09 µM
TGI [31]: 14.9 µM
GI50 [32]: 2 µM
TGI [32]: 12.1 µM
GI50 [33]: 2.36 µM
TGI [33]: 14.1 µM
GI50 [34]: 1.23 µM
TGI [34]: 4.51 µM
GI50 [35]: 1.21 µM
TGI [35]: 3.57 µM
GI50 [36]: 1.56 µM
TGI [36]: 6.4 µM
GI50 [37]: 1.59 µM
TGI [37]: 13.2 µM
GI50 [38]: 1.79 µM
TGI [38]: 11.8 µM
GI50 [39]: 2.67 µM
TGI [39]: 16.6 µM
GI50 [40]: 2.49 µM
TGI [40]: 17.5 µM
GI50 [41]: 1.71 µM
TGI [41]: 15 µM
GI50 [42]: 1.95 µM
TGI [42]: 10.8 µM
GI50 [43]: 2.31 µM
TGI [43]: 16.2 µM
GI50 [44]: 0.648 µM
TGI [44]: 16.4 µM
GI50 [45]: 3.26 µM
TGI [45]: 15.7 µM
GI50 [46]: 3.26 µM
TGI [46]: 17.3 µM
GI50 [47]: 1.19 µM
TGI [47]: 3.41 µM
GI50 [48]: 11.5 µM
TGI [48]: 29.9 µM
GI50 [49]: 0.62 µM
TGI [49]: 11.2 µM
GI50 [50]: 0.686 µM
TGI [50]: 12.1 µM
GI50 [51]: 0.421 µM
TGI [51]: 10.7 µM
GI50 [52]: 1.29 µM
TGI [52]: 10.4 µM
GI50 [53]: 3.16 µM
TGI [53]: 11 µM
GI50 [54]: 2.55 µM
TGI [54]: 23.1 µM
GI50 [55]: 1.52 µM
TGI [55]: 8.29 µM
GI50 [56]: 3.05 µM
TGI [56]: 17.5 µM
GI50 [57]: 0.804 µM
TGI [57]: 4.74 µM
GI50 [58]: 10 µM
TGI [58]: 81.9 µM

From PubChem BioAssay (NCI)
